According to article PMC12222954 (Nature Communications, 2025):

How the values were obtained:
[1] = Intestinal transport rate, everted intestinal sac model; assay type: in vitro ADME, SD rats; conditions: pre-incubation 40 min
[2] = assay type: in vivo; conditions: abcb1(-/-) mice, GlcN 500 mg/kg
[3] = Pharmacokinetics of digoxin in abcb1; assay type: in vivo; conditions: abcb1(-/-) mice
[4] = biological target: T1, P-gp (Homo sapiens, UniProt P08183); test: Efflux of Rh123 from preloaded Caco-2 cells; assay type: cell-based; conditions: Rh123-preloaded Caco-2 cells, vs control
[5] = assay type: in vivo; conditions: FVB mice, GlcN 500 mg/kg
[6] = test system: A549 cells; assay type: cell-based
[7] = test system: tight junctions between intestinal epithelial cells; test: TEM observation of tight junctions after oral GlcN; assay type: in vivo, SD rats; conditions: GlcN 250 mg/kg, 20 min
[8] = Pharmacokinetics of digoxin in wild-type FVB mice with or without GlcN; assay type: in vivo
[9] = test system: Caco-2 cells; test: Cell viability, Cell Counting Kit-8; assay type: cell-based; conditions: 48 h
[10] = Molar osmotic pressure of solution after adding GlcN or Glu; assay type: physicochemical; conditions: GlcN concentrations below 20 mM
[11] = test system: paraquat poisoning; assay type: in vivo, SD rats; conditions: for survival rate: PQ-intoxicated rats, oral 2 h post-intoxication, over 15 days
[12] = assay type: in vivo, SD rats; conditions: Sprague-Dawley, rat, oral
[13] = biological target: T1, P-gp; test: Cellular uptake of Rh123 in P-gp silenced; assay type: cell-based; conditions: P-gp knockdown Caco-2 cells, various concentrations
[14] = biological target: CYP3A4 (Homo sapiens, UniProt P08684); conditions: 30 min incubation, 100 μM GlcN
[15] = biological target: T1, P-gp; assay type: biochemical; conditions: GlcN 10 mM, 5 min pre-incubation
[16] = test system: Caco-2 cells; assay type: cell-based
[17] = biological target: P-gp-mediated ATPase (Homo sapiens, UniProt P08183); test: P-gp-mediated ATPase activity in Caco-2 cells; assay type: cell-based; conditions: 10 μM GlcN
[18] = test system: paraquat poisoning; test: Survival of paraquat-poisoned FVB mice; assay type: in vivo, wt FVB mice; conditions: PQ-intoxicated FVB mice
[19] = test system: paraquat poisoning; test: Survival of paraquat-poisoned abcb1; assay type: in vivo; conditions: PQ-intoxicated abcb1(-/-) mice, 15 days
[20] = biological target: T1, P-gp; test: Transport of paraquat in P-gp recombinant inside-out vesicle model; assay type: biochemical; conditions: P-gp inside-out vesicles
[21] = assay type: in vivo; conditions: SD rats; for effect on the intestinal absorption of capecitabine: COS 250 mg/kg
[22] = biological target: T1, P-gp; test: SPR affinity to P-gp in SMALP-MCF-7/ADR liposomes; assay type: binding

T1 sequence (P08183 whole entry): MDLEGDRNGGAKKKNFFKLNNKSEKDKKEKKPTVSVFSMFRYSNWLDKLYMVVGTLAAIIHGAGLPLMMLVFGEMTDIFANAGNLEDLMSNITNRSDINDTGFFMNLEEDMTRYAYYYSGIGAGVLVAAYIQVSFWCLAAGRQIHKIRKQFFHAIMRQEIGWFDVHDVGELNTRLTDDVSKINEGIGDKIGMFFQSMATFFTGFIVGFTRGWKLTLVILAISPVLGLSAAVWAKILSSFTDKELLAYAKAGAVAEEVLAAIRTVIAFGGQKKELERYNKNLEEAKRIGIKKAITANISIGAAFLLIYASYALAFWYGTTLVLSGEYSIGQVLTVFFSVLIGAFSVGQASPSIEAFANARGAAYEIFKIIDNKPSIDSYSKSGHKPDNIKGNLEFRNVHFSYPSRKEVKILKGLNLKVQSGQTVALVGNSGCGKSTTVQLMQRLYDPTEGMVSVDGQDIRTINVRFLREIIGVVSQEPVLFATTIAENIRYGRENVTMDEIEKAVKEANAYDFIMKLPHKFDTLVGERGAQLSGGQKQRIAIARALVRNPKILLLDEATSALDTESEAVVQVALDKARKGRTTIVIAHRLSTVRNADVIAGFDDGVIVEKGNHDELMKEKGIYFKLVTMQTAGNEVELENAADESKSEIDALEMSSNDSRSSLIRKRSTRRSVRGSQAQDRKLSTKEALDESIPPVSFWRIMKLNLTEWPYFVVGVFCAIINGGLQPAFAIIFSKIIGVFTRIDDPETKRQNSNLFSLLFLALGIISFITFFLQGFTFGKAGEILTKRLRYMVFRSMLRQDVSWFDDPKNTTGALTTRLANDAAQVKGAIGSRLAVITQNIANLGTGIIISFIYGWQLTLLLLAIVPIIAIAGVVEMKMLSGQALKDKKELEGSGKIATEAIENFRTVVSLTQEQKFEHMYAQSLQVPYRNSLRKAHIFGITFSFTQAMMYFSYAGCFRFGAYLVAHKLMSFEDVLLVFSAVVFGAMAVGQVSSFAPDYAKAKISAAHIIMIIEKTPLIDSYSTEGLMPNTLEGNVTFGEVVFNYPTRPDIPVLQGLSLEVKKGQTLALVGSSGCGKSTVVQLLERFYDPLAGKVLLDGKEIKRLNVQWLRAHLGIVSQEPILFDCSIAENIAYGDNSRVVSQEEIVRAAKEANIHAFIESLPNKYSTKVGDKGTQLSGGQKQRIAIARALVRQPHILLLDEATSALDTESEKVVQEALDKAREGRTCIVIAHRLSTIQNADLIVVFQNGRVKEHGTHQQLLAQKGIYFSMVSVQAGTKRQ
Sequence of P-gp-mediated ATPase (P08183 whole entry): as above
Sequence of CYP3A4 (P08684 whole entry): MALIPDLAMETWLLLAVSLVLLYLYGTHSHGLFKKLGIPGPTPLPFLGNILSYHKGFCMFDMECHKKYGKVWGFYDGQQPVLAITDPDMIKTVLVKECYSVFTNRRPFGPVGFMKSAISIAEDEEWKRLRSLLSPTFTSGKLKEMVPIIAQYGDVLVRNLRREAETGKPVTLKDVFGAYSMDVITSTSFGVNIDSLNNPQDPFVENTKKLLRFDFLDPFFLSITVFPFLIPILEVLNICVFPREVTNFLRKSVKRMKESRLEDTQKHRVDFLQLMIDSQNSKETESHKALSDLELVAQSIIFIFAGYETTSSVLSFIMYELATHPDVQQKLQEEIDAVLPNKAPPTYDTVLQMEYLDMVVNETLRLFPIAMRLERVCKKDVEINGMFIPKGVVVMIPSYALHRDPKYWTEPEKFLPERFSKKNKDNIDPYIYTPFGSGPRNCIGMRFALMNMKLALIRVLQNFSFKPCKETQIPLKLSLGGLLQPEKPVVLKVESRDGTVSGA

N[C@H]1C(O)O[C@H](CO)[C@@H](O)[C@@H]1O (some centres unmarked) [GlcN, Glucosamine]
inhibitory effect on intestinal drug transport after prolonged pre-incubation [1]: reverses the inhibitory effect | effect on PQ pharmacokinetics [2]: no substantial effect | effect on in vivo pharmacokinetic behavior of digoxin [3]: does not affect | effect on fluorescence intensity of intracellular Rh123 / Rh123 transport [4]: notably reduced | effect on PQ absorption [5]: significantly reduced | effect on resistance to paraquat (cell viability) [6]: significantly enhanced the resistance | tight junctions between intestinal epithelial cells before and after oral GlcN [7]: remained unchanged | effect on oral absorption of digoxin [8]: significantly inhibited | concentrations that did not induce significant cytotoxicity [9]: below 50 mM | ΔOsmolality [10]: below 20 mOsmol/kg | survival rate [11]: 60% | reduction of PQ peak plasma concentration and bioavailability [12]: ~ 60% | effect on intracellular accumulation level of Rh123 [13]: hardly had any effect | boost of CYP3A4 enzyme activity compared to the control group [14]: 301% | transport activity relative to the control group [15]: ~ 1.48 times | effect on resistance to paraquat (cell viability) [16]: significantly enhanced the resistance | ATPase activity compared to baseline at peak effect [17]: doubled | effect on survival rate [18]: improves the survival rate | effect on survival [19]: fails to significantly rescue | effect on paraquat transport [20]: enhanced its transport

C[C@@H]1C[C@H]2[C@@H]3CCC4=CC(=O)C=C[C@]4(C)[C@@]3(F)[C@@H](O)C[C@]2(C)[C@@]1(O)C(=O)CO [DEX, dexamethasone, reference compound]
survival rate [11]: 30% | effect on survival [19]: does not improve the survival rate within 15 days

N[C@H]1[C@H](O[C@H]2[C@H](O)[C@@H](N)[C@H](O[C@H]3[C@H](O)[C@@H](N)[C@H](O[C@H]4[C@H](O)[C@@H](N)[C@H](O[C@H]5[C@H](O)[C@@H](N)C(O)O[C@@H]5CO)O[C@@H]4CO)O[C@@H]3CO)O[C@@H]2CO)O[C@H](CO)[C@@H](O)[C@@H]1O (some centres unmarked) [COS5, chitopentaose]
effect on the intestinal absorption of capecitabine [21]: facilitated

N[C@H]1[C@H](O[C@H]2[C@H](O)[C@@H](N)C(O)O[C@@H]2CO)O[C@H](CO)[C@@H](O)[C@@H]1O (some centres unmarked) [COS2, chitobiose]
effect on the intestinal absorption of capecitabine [21]: inhibited

OC[C@H]1OC(O)[C@H](O)[C@@H](O)[C@@H]1O (some centres unmarked) [glucose, reference compound]
effect on fluorescence intensity of intracellular Rh123 / Rh123 transport [4]: no discernible effect

N[C@H]1[C@H](O[C@H]2[C@H](O)[C@@H](N)[C@H](O[C@H]3[C@H](O)[C@@H](N)C(O)O[C@@H]3CO)O[C@@H]2CO)O[C@H](CO)[C@@H](O)[C@@H]1O (some centres unmarked) [COS3, chitotriose]
AUC of capecitabine, of the control group [21]: 12.65% | effect on the intestinal absorption of capecitabine [21]: inhibited | Kd [22]: 276 µM

C[n+]1ccc(-c2cc[n+](C)cc2)cc1 [PQ, N,N’-dimethyl-4,4’-bipyridinium]
time within which all poisoned rats without administration died ([11]; paraquat 350 mg/kg oral, SD rats): ≤ 6 days
